# From the supplement of paper PMC10307832
# Compound: CCOC(=O)CCNc1cc(N2CCc3ccccc3CC2)nc(-c2ccccn2)n1 [GSK-J4] + Nc1ncn([C@H]2C[C@H](O)[C@@H](CO)O2)c(=O)n1 [Decitabine] (partner 2 µM)
# Assay: relative viability (nuclei count vs DMSO), 5 days (fraction); higher = more cells survive
# Conditions: first compound 0.5 µM
# In short: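 Relative viability is defined as nuclei in treated wells over nuclei in vehicle wells. Duplicate plates were run and medians reported. Lung cancer cell lines in 1536-well plates were dosed by pin tool one day after seeding, with one drug or with a fixed anchor-drug dose plus five library-drug doses (not always all listed) in √10 steps, and nuclei were counted after 5 days.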
row,Cell Line,relative viability
1,NCI-H522,0.776
2,PC-14,0.231
3,NCI-H1666,0.747
4,EKVX,0.297
5,NCI-H1755,0.727
6,NCI-H2023,0.212
7,HCC-78,0.726
8,SK-LU-1,0.653
9,PC-3 [JPC-3],0.883
10,LOU-NH91,0.789
11,NCI-H647,0.376
12,NCI-H23,0.261
13,EPLC-272H,0.408
14,NCI-H2126,0.625
15,ChaGo-K-1,0.535
16,HCC-44,0.932
17,NCI-H1734,0.542

row,Cell Line,relative viability
1,NCI-H650,0.289
2,LK-2,0.222
3,NCI-H2342,0.645
4,NCI-H1944,0.411
5,HARA,0.506
6,COR-L23,0.393
7,LCLC-103H,0.784
8,LXF-289,0.388
9,NCI-H358,0.206
10,A549,0.241
11,SW 900,0.376
12,NCI-H1648,0.569
13,NCI-H1395,0.781
14,NCI-H1793,0.394
15,NCI-H2170,0.453
16,ABC-1,1
17,SK-MES-1,0.389

# Same assay, conditions: first compound 1.581 µM
row,Cell Line,relative viability
1,NCI-H522,0.611
2,PC-14,0.218
3,NCI-H1666,0.726
4,NCI-H1755,0.569
5,NCI-H2023,0.195
6,HCC-78,0.633
7,SK-LU-1,0.605
8,PC-3 [JPC-3],0.735
9,LOU-NH91,0.798
10,NCI-H647,0.393
11,NCI-H23,0.271
12,EPLC-272H,0.33
13,NCI-H2126,0.573
14,HCC-44,0.716
15,NCI-H1734,0.447
16,NCI-H650,0.326
17,LK-2,0.283
18,NCI-H2342,0.691
19,NCI-H1944,0.381
20,HARA,0.49
21,COR-L23,0.384
22,LCLC-103H,0.624
23,LXF-289,0.376
24,A549,0.205
25,SW 900,0.354
26,NCI-H1395,0.718
27,NCI-H1793,0.371
28,NCI-H2170,0.422
29,ABC-1,1.16
30,SK-MES-1,0.359

# Same assay, conditions: first compound 5 µM
row,Cell Line,relative viability
1,PC-14,0.259
2,NCI-H1666,0.84
3,EKVX,0.355
4,NCI-H1755,0.641
5,NCI-H2023,0.209
6,HCC-78,0.71
7,SK-LU-1,0.538
8,PC-3 [JPC-3],0.801
9,LOU-NH91,0.703
10,NCI-H647,0.374
11,NCI-H23,0.303
12,EPLC-272H,0.448
13,NCI-H2126,0.59
14,ChaGo-K-1,0.557
15,HCC-44,0.823
16,NCI-H1734,0.507
17,LK-2,0.447
18,NCI-H2342,0.776
19,LCLC-103H,0.786
20,LXF-289,0.403
21,NCI-H358,0.216
22,A549,0.246
23,SW 900,0.469
24,NCI-H1648,0.718
25,NCI-H1395,0.632
26,NCI-H1793,0.305
27,NCI-H2170,0.459
28,ABC-1,1.05
29,SK-MES-1,0.386

# Same assay, conditions: first compound 15.81 µM
row,Cell Line,relative viability
1,NCI-H522,0.573
2,PC-14,0.232
3,NCI-H1666,0.666
4,EKVX,0.324
5,NCI-H1755,0.61
6,NCI-H2023,0.174
7,HCC-78,0.549
8,SK-LU-1,0.633
9,PC-3 [JPC-3],0.876
10,LOU-NH91,0.774
11,NCI-H647,0.337
12,NCI-H23,0.279
13,EPLC-272H,0.339
14,NCI-H2126,0.53
15,ChaGo-K-1,0.479
16,HCC-44,1.03
17,NCI-H1734,0.492

row,Cell Line,relative viability
1,NCI-H650,0.283
2,LK-2,0.262
3,NCI-H2342,0.75
4,NCI-H1944,0.367
5,HARA,0.506
6,COR-L23,0.386
7,LCLC-103H,0.722
8,LXF-289,0.394
9,NCI-H358,0.177
10,A549,0.244
11,SW 900,0.48
12,NCI-H1395,0.751
13,NCI-H1793,0.204
14,NCI-H2170,0.463
15,ABC-1,0.883
16,SK-MES-1,0.321

# Same assay, conditions: first compound 50 µM
row,Cell Line,relative viability
1,NCI-H522,0.651
2,PC-14,0.268
3,NCI-H1666,0.674
4,EKVX,0.299
5,NCI-H1755,0.709
6,NCI-H2023,0.195
7,HCC-78,0.621
8,SK-LU-1,0.524
9,PC-3 [JPC-3],0.781
10,LOU-NH91,0.805
11,NCI-H647,0.496
12,NCI-H23,0.282
13,EPLC-272H,0.308
14,NCI-H2126,0.539
15,ChaGo-K-1,0.471
16,HCC-44,1.06
17,NCI-H1734,0.376

row,Cell Line,relative viability
1,NCI-H650,0.334
2,LK-2,0.338
3,NCI-H2342,0.7
4,NCI-H1944,0.412
5,HARA,0.369
6,COR-L23,0.352
7,LCLC-103H,0.572
8,LXF-289,0.406
9,NCI-H358,0.159
10,A549,0.282
11,SW 900,0.343
12,NCI-H1648,0.482
13,NCI-H1395,0.661
14,NCI-H1793,0.196
15,NCI-H2170,0.464
16,ABC-1,0.795
17,SK-MES-1,0.323
